Test results published in patent publication US11427558B1, “Indazoles and azaindazoles as LRRK2 inhibitors” (ESCAPE Bio, Inc., priority 2019, dated 2022).

Legend:
[1] = target: Recombinant wild type LRRK2 protein (Homo sapiens (Human), UniProt Q5S007); assay: LRRK2 kinase activity, LanthaScreen TR-FRET assay (wild type); format: biochemical; conditions: LRRKtide 400 nM, 25 μM ATP, 60 min; read-out: LRRK2 WT IC50
Summary of the method: (§1)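 Recombinant human wild-type or G2019S LRRK2 phosphorylated fluorescein-labelled LRRKtide (ERM-based) with ATP and serially diluted compound for 60 min at room temperature.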

[2] = target: Recombinant G2019S-LRRK2 protein (Homo sapiens (Human), UniProt Q5S007, G2019S); assay: LRRK2 kinase activity, LanthaScreen TR-FRET assay (G2019S); format: biochemical; conditions: LRRKtide 400 nM, 25 μM ATP, 60 min
Summary of the method: as §1

Sequence of Recombinant G2019S-LRRK2 protein (Q5S007 whole entry G2019S): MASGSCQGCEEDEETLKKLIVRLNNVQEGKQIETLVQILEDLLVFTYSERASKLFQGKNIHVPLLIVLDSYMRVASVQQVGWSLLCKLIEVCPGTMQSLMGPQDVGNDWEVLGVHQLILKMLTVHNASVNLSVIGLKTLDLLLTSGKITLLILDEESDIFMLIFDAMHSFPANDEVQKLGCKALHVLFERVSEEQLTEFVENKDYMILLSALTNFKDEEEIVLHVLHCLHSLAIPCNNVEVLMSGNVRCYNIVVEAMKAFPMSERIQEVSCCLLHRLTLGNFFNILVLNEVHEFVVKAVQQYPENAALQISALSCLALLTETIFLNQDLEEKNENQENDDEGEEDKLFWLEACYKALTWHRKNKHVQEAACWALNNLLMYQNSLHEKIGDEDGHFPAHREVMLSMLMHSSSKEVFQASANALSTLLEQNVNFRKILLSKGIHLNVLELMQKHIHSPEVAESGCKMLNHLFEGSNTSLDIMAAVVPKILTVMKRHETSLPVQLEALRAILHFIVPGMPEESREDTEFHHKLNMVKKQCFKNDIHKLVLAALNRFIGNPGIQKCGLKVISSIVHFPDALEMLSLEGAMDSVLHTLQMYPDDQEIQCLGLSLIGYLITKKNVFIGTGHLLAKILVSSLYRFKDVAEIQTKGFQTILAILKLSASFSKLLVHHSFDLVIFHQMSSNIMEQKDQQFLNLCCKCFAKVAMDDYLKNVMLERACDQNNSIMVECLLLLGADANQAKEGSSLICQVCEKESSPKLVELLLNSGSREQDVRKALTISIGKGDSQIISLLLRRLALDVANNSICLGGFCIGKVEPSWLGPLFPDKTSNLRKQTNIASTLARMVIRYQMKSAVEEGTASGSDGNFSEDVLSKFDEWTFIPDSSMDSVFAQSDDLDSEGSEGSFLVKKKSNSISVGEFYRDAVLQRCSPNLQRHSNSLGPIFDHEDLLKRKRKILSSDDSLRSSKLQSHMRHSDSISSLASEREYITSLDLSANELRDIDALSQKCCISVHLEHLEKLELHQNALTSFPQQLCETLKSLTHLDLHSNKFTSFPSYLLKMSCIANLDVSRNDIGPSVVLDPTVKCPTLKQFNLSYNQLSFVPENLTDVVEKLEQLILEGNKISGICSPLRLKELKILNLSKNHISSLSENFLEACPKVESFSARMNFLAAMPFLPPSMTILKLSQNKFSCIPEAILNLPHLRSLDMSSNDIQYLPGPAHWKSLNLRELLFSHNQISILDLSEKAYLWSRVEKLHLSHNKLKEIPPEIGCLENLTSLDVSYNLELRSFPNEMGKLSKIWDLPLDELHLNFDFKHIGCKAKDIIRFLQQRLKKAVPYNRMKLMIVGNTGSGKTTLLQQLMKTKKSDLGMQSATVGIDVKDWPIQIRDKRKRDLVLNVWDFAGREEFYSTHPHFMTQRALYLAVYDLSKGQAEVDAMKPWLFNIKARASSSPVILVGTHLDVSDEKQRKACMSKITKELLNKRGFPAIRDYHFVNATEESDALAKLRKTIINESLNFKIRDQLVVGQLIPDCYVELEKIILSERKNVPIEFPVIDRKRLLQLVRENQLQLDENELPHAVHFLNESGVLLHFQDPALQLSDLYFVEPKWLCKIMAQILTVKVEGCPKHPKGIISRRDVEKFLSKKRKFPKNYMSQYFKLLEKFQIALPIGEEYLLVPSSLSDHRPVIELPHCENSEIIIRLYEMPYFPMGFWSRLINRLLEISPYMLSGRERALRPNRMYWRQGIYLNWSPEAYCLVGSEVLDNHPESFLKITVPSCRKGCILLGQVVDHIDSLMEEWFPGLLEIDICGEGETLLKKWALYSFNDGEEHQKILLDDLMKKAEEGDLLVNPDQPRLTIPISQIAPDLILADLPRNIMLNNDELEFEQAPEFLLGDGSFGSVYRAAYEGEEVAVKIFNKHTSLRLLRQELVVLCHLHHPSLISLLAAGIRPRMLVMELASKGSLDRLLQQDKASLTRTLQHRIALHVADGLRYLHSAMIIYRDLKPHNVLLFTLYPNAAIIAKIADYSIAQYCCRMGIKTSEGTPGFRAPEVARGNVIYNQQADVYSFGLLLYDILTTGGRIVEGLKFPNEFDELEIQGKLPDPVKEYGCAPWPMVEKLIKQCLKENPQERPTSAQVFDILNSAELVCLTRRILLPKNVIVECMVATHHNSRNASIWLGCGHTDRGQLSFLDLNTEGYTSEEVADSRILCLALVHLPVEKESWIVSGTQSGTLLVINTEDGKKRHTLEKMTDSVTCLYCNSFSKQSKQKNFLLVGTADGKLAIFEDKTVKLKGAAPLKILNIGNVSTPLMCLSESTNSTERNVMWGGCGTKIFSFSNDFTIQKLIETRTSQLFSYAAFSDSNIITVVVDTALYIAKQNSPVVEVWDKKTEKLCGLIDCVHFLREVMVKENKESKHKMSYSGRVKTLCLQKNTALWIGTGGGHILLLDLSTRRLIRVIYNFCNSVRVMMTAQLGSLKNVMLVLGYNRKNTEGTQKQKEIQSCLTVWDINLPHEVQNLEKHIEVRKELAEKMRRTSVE
Sequence of Recombinant wild type LRRK2 protein (Q5S007 whole entry): as the sequence (Q5S007 whole entry G2019S) above, with S2019G counted along it

Work on `N#Cc1cnc(C(=O)Nc2ccc3[nH]nc(-c4cnoc4)c3c2)c2c1CCC2` [Example 218, 4-cyano-N-(3-(isoxazol-4-yl)-1H-indazol-5-yl)-6,7-dihydro-5H-cyclopenta[c]pyridine-1-carboxamide] yielded an IC50 [1] of 1000 to 10000 nM and an IC50 [2] of under 100 nM.

`COc1cc(-c2n[nH]c3ccc(NC(=O)c4ncc(C#N)c(C)c4C)cc23)cc(C)n1` [Example 219, 5-Cyano-N-(3-(2-methoxy-6-methylpyridin-4-yl)-1H-indazol-5-yl)-3,4-dimethylpicolinamide] was tested, and the IC50 [1] was under 100 nM and the IC50 [2] was under 100 nM.

`N#Cc1cccc(C(=O)Nc2ccc3[nH]nc(-c4cnoc4)c3c2)c1Cl` [Example 220, 2-Chloro-3-cyano-N-(3-(isoxazol-4-yl)-1H-indazol-5-yl)benzamide] showed an IC50 [1] of under 100 nM and an IC50 [2] of under 100 nM.

With `Cc1c(C#N)cnc(C(=O)Nc2ccc3[nH]nc(-c4cnn(C5COC5)c4)c3c2)c1C` [Example 221, 5-Cyano-3,4-dimethyl-N-(3-(1-(oxetan-3-yl)-1H-pyrazol-4-yl)-1H-indazol-5-yl)picolinamide] the IC50 [1] was under 100 nM and the IC50 [2] was under 100 nM.

With `Cc1nc(C(=O)Nc2ccc3[nH]nc(-c4cncs4)c3c2)c(C)c(C)c1C#N` [Example 222, 5-Cyano-3,4,6-trimethyl-N-(3-(thiazol-5-yl)-1H-indazol-5-yl)picolinamide] the IC50 [1] was under 100 nM and the IC50 [2] was under 100 nM.

With `Cc1c(C#N)cnc(C(=O)Nc2ccc3[nH]nc(C4CC4)c3c2)c1C` [Example 223, 5-Cyano-N-(3-cyclopropyl-1H-indazol-5-yl)-3,4-dimethylpicolinamide] the IC50 [1] was 1000 to 10000 nM and the IC50 [2] was under 100 nM.

With `Cn1cc(C(=O)Nc2ccc3[nH]nc(-c4cnco4)c3c2)cc(C#N)c1=O` [Example 224, 5-cyano-1-methyl-N-(3-(oxazol-5-yl)-1H-indazol-5-yl)-6-oxo-1,6-dihydropyridine-3-carboxamide] the IC50 [1] was under 100 nM and the IC50 [2] was under 100 nM.

Work on `CC(C)c1c(C#N)cccc1C(=O)Nc1ccc2[nH]nc(-c3cnco3)c2c1` [Example 225, 3-Cyano-2-isopropyl-N-(3-(oxazol-5-yl)-1H-indazol-5-yl)benzamide] yielded an IC50 [1] of under 100 nM and an IC50 [2] of under 100 nM.

Work on `COc1c(C#N)cnc(C(=O)Nc2ccc3[nH]nc(-c4cnoc4)c3c2)c1C` [Example 226, 5-Cyano-N-(3-(isoxazol-4-yl)-1H-indazol-5-yl)-4-methoxy-3-methylpicolinamide] yielded an IC50 [1] of under 100 nM and an IC50 [2] of under 100 nM.

`Cc1c(C#N)cnc(C(=O)Nc2ccc3[nH]nc(-c4cncs4)c3c2)c1C` [Example 227, 5-Cyano-3,4-dimethyl-N-(3-(thiazol-5-yl)-1H-indazol-5-yl)picolinamide] showed an IC50 [1] of under 100 nM and an IC50 [2] of under 100 nM.

Work on `COc1c(C#N)ccnc1C(=O)Nc1ccc2[nH]nc(-c3cnoc3)c2c1` [Example 228, 4-Cyano-N-(3-(isoxazol-4-yl)-1H-indazol-5-yl)-3-methoxypicolinamide] yielded an IC50 [1] of 100 to 1000 nM and an IC50 [2] of under 100 nM.

`Cc1cc(-c2n[nH]c3ccc(NC(=O)c4ncc(C#N)c(C)c4C)cc23)on1` [Example 229, 5-Cyano-3,4-dimethyl-N-(3-(3-methylisoxazol-5-yl)-1H-indazol-5-yl)picolinamide] showed an IC50 [1] of under 100 nM and an IC50 [2] of under 100 nM.

For `Cc1c(C#N)cnc(C(=O)Nc2ccc3[nH]nc(-c4ccncn4)c3c2)c1C` [Example 230, 5-Cyano-3,4-dimethyl-N-(3-(pyrimidin-4-yl)-1H-indazol-5-yl)picolinamide], the IC50 [1] was 100 to 1000 nM and the IC50 [2] was under 100 nM.

For `CCc1c(C#N)ccc(F)c1C(=O)Nc1ccc2[nH]nc(-c3cnco3)c2c1` [Example 231, 3-Cyano-2-ethyl-6-fluoro-N-(3-(oxazol-5-yl)-1H-indazol-5-yl)benzamide], the IC50 [1] was under 100 nM and the IC50 [2] was under 100 nM.

With `CCc1c(C(=O)Nc2ccc3[nH]nc(-c4cnco4)c3c2)ccnc1C#N` [Example 232, 2-Cyano-3-ethyl-N-(3-(oxazol-5-yl)-1H-indazol-5-yl)isonicotinamide] the IC50 [1] was under 100 nM and the IC50 [2] was under 100 nM.

`Cc1c(C#N)cnc(C(=O)Nc2ccc3[nH]nc(/C=C/C4CC4)c3c2)c1C` [Example 233, (E)-5-Cyano-N-(3-(2-cyclopropylvinyl)-1H-indazol-5-yl)-3,4-dimethylpicolinamide] gave an IC50 [1] of under 100 nM and an IC50 [2] of under 100 nM.

`COc1c(C#N)ccc(C)c1C(=O)Nc1ccc2[nH]nc(-c3cnco3)c2c1` [Example 234, 3-Cyano-2-methoxy-6-methyl-N-(3-(oxazol-5-yl)-1H-indazol-5-yl)benzamide] gave an IC50 [1] of under 100 nM and an IC50 [2] of under 100 nM.

`Cc1cc(-c2n[nH]c3ccc(NC(=O)c4ncc(C#N)cc4C)cc23)on1` [Example 235, 5-Cyano-3-methyl-N-(3-(3-methylisoxazol-5-yl)-1H-indazol-5-yl)picolinamide] gave an IC50 [1] of under 100 nM and an IC50 [2] of under 100 nM.

Molecule `Cc1ccc(C#N)c(F)c1C(=O)Nc1ccc2[nH]nc(-c3cnoc3)c2c1` [Example 236, 3-Cyano-2-fluoro-N-(3-(isoxazol-4-yl)-1H-indazol-5-yl)-6-methylbenzamide] has an IC50 [1] of under 100 nM and an IC50 [2] of under 100 nM.

Work on `Cc1nccc(-c2n[nH]c3ccc(NC(=O)c4ncc(C#N)c(C)c4C)cc23)n1` [Example 237, 5-Cyano-3,4-dimethyl-N-(3-(2-methylpyrimidin-4-yl)-1H-indazol-5-yl)picolinamide] yielded an IC50 [1] of under 100 nM and an IC50 [2] of under 100 nM.

In the case of `Cc1c(C#N)cnc(C(=O)Nc2cc3c(-c4cnco4)n[nH]c3cn2)c1C` [Example 238, 5-Cyano-3,4-dimethyl-N-(3-(oxazol-5-yl)-1H-pyrazolo[3,4-c]pyridin-5-yl)picolinamide], the IC50 [1] is reported as 100 to 1000 nM and the IC50 [2] is reported as under 100 nM.

In the case of `Cc1c(C#N)nn(C)c1C(=O)Nc1ccc2[nH]nc(-c3cnco3)c2c1` [Example 239, 3-Cyano-1,4-dimethyl-N-(3-(oxazol-5-yl)-1H-indazol-5-yl)-1H-pyrazole-5-carboxamide], the IC50 [1] is reported as under 100 nM and the IC50 [2] is reported as 100 to 1000 nM.

With `Cc1c(C#N)cnc(C(=O)Nc2ccc3[nH]nc(-c4cn(C)nn4)c3c2)c1C` [Example 240, 5-Cyano-3,4-dimethyl-N-(3-(1-methyl-1H-1,2,3-triazol-4-yl)-1H-indazol-5-yl)picolinamide] the IC50 [1] was 100 to 1000 nM and the IC50 [2] was under 100 nM.

Molecule `Cc1cc(C#N)cnc1C(=O)Nc1ccc2[nH]nc(-c3cn(C)nn3)c2c1` [Example 241, 5-Cyano-3-methyl-N-(3-(1-methyl-1H-1,2,3-triazol-4-yl)-1H-indazol-5-yl)picolinamide] has an IC50 [1] of 100 to 1000 nM and an IC50 [2] of 100 to 1000 nM.

In the case of `Cc1cc(C#N)cnc1C(=O)Nc1ccc2[nH]nc(-n3ccoc3=O)c2c1` [Example 242, 5-Cyano-3-methyl-N-(3-(2-oxooxazol-3(2H)-yl)-1H-indazol-5-yl)picolinamide], the IC50 [1] is reported as 1000 to 10000 nM and the IC50 [2] is reported as under 100 nM.

In the case of `CC(C)=Cc1n[nH]c2ccc(NC(=O)c3ncc(C#N)c(C)c3C)cc12` [Example 243, 5-Cyano-3,4-dimethyl-N-(3-(2-methylprop-1-en-1-yl)-1H-indazol-5-yl)picolinamide], the IC50 [1] is reported as 100 to 1000 nM and the IC50 [2] is reported as under 100 nM.

With `Cc1c(C#N)cnc(C(=O)Nc2ccc3[nH]nc(/C=C/c4ccccc4)c3c2)c1C` [Example 244, (E)-5-Cyano-3,4-dimethyl-N-(3-styryl-1H-indazol-5-yl)picolinamide] the IC50 [1] was under 100 nM and the IC50 [2] was under 100 nM.

Work on `C/C=C/c1n[nH]c2ccc(NC(=O)c3ncc(C#N)c(C)c3C)cc12` [Example 245, (E)-5-cyano-3,4-dimethyl-N-(3-(prop-1-en-1-yl)-1H-indazol-5-yl)picolinamide] yielded an IC50 [1] of 100 to 1000 nM and an IC50 [2] of under 100 nM.

In the case of `Cc1c(C#N)cn(C)c1C(=O)Nc1ccc2[nH]nc(-c3cnoc3)c2c1` [Example 246, 4-Cyano-N-(3-(isoxazol-4-yl)-1H-indazol-5-yl)-1,3-dimethyl-1H-pyrrole-2-carboxamide], the IC50 [1] is reported as under 100 nM and the IC50 [2] is reported as under 100 nM.

With `Cn1cc(C#N)cc1C(=O)Nc1ccc2[nH]nc(-c3cnoc3)c2c1` [Example 247, 4-Cyano-N-(3-(isoxazol-4-yl)-1H-indazol-5-yl)-1-methyl-1H-pyrrole-2-carboxamide] the IC50 [1] was under 100 nM and the IC50 [2] was under 100 nM.

`Cc1c(C#N)cnc(C(=O)Nc2ccc3[nH]nc(/C=C/c4ccccn4)c3c2)c1C` [Example 248, (E)-5-Cyano-3,4-dimethyl-N-(3-(2-(pyridin-2-yl)vinyl)-1H-indazol-5-yl)picolinamide] showed an IC50 [1] of under 100 nM and an IC50 [2] of under 100 nM.

Molecule `COc1cc(C(=O)Nc2ccc3[nH]nc(-c4cnco4)c3c2)ncc1C#N` [Example 249, 5-Cyano-4-methoxy-N-(3-(oxazol-5-yl)-1H-indazol-5-yl)picolinamide] has an IC50 [1] of 100 to 1000 nM and an IC50 [2] of under 100 nM.

`C=C(C)c1cc(C#N)cnc1C(=O)Nc1ccc2[nH]nc(-c3cnco3)c2c1` [Example 250, 5-Cyano-N-(3-(oxazol-5-yl)-1H-indazol-5-yl)-3-(prop-1-en-2-yl)picolinamide] was tested, and the IC50 [1] was under 100 nM and the IC50 [2] was under 100 nM.

Work on `CC(C)c1cc(C#N)cnc1C(=O)Nc1ccc2[nH]nc(-c3cnco3)c2c1` [Example 251, 5-Cyano-3-isopropyl-N-(3-(oxazol-5-yl)-1H-indazol-5-yl)picolinamide] yielded an IC50 [1] of 100 to 1000 nM and an IC50 [2] of under 100 nM.

In the case of `Cc1c(C#N)cnc(C(=O)Nc2ccc3[nH]nc([C@@H]4CC4c4ccccc4)c3c2)c1C` (stereo partly drawn) [Example 252, 5-Cyano-3,4-dimethyl-N-(3-((1R)-2-phenylcyclopropyl)-1H-indazol-5-yl)picolinamide], the IC50 [1] is reported as 100 to 1000 nM and the IC50 [2] is reported as under 100 nM.

For `Cc1cc(C#N)cnc1C(=O)Nc1ccc2[nH]nc(N3CCC3)c2c1` [Example 253, N-(3-(Azetidin-1-yl)-1H-indazol-5-yl)-5-cyano-3-methylpicolinamide], the IC50 [1] was 1000 to 10000 nM and the IC50 [2] was 100 to 1000 nM.

With `Cc1cc(C#N)cnc1C(=O)Nc1ccc2[nH]nc(N3CC(F)(F)C3)c2c1` [Example 254, 5-Cyano-N-(3-(3,3-difluoroazetidin-1-yl)-1H-indazol-5-yl)-3-methylpicolinamide] the IC50 [1] was 1000 to 10000 nM and the IC50 [2] was 100 to 1000 nM.

For `Cc1cc(C#N)cnc1C(=O)Nc1ccc2[nH]nc(OCc3ccccc3)c2c1` [Example 255, N-(3-(Benzyloxy)-1H-indazol-5-yl)-5-cyano-3-methylpicolinamide], the IC50 [1] was 100 to 1000 nM and the IC50 [2] was under 100 nM.
